The source made the active and inactive calls. No cut-off for these calls is given here.
Legend:
[1] = molecular target: T1, Peroxisome proliferator-activated receptor alpha (Homo sapiens, UniProt Q07869)
T1 sequence (Q07869 whole entry): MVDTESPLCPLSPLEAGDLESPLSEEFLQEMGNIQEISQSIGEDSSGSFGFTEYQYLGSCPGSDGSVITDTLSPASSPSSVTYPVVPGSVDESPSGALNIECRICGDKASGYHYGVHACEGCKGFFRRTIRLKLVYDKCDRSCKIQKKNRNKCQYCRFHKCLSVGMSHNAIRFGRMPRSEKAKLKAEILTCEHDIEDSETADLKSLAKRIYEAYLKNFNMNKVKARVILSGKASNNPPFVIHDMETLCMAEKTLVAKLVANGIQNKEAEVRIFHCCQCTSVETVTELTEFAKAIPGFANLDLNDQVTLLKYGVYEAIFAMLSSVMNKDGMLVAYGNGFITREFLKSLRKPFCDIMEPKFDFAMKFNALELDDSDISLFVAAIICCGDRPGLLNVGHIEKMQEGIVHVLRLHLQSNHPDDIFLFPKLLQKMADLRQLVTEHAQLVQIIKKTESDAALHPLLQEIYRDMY

[2] = molecular target: T1, Peroxisome proliferator-activated receptor alpha; experiment: biochemical
[3] = molecular target: T2, Peroxisome proliferator-activated receptor delta (Homo sapiens, UniProt Q03181)
T2 sequence (Q03181 whole entry): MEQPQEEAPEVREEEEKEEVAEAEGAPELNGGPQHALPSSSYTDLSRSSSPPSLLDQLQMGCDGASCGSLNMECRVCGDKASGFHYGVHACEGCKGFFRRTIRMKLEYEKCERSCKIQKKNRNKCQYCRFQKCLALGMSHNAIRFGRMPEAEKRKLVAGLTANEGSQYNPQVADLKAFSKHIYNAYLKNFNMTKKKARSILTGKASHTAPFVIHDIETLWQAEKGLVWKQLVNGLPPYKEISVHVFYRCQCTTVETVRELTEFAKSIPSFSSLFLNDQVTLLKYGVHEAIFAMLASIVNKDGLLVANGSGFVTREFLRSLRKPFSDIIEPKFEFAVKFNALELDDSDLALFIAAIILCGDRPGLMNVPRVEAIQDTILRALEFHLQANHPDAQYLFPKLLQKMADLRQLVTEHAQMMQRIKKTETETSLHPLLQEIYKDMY

[4] = system: Mus musculus; experiment: Increase in plasma HDLC level in human ApoA1 transgenic mouse model at 300 mg/kg/day after 12 days by FPLC method; assay type: functional, organism-based
[5] = Total clearance in rat; assay type: ADME, organism-based; settings: in vivo
[6] = Total clearance in cynomolgus monkey; assay type: ADME, organism-based, Macaca fascicularis; settings: in vivo
[7] = Bioavailability in rat; assay type: ADME, organism-based; settings: in vivo
[8] = Bioavailability in cynomolgus monkey; assay type: ADME, organism-based, Macaca fascicularis; settings: in vivo
[9] = Half life in rat; assay type: ADME, organism-based; settings: in vivo
[10] = Half life in cynomolgus monkey; assay type: ADME, organism-based, Macaca fascicularis; settings: in vivo
[11] = system: Mus musculus; experiment: Antidiabetic activity in overnight fasted db/db mouse diabetic model assessed as reduction in blood glucose level at 0.3 mg/kg/day, po chronically for 12 days challenged with glucose 24 hrs post last dose by OGTT; assay type: functional, organism-based
[12] = system: Mus musculus; experiment: Antidiabetic activity in db/db mouse diabetic model assessed as reduction in post prandial blood glucose level at 0.3 mg/kg/day; assay type: functional, organism-based
[13] = system: Mus musculus; experiment: Antidiabetic activity in overnight fasted db/db mouse diabetic model assessed as reduction in blood glucose level at 3 mg/kg/day, po chronically for 12 days challenged with glucose 24 hrs post last dose by OGTT; assay type: functional, organism-based
[14] = system: Mus musculus; experiment: Antidiabetic activity in db/db mouse diabetic model assessed as reduction in post prandial blood glucose level at 3 mg/kg/day; assay type: functional, organism-based
[15] = system: Rattus norvegicus; experiment: Antidiabetic activity in Zucker fa/fa rat assessed as glucose infusion rate at 1 mg/kg/day after 7 days by hyperinsulinemic-euglycemic clamp study; assay type: functional, organism-based
[16] = system: Rattus norvegicus; experiment: Antidiabetic activity in Zucker fa/fa rat assessed as HOMA-insulin resistance index at 1 mg/kg/day; assay type: functional, organism-based
[17] = system: Rattus norvegicus; experiment: Antidiabetic activity in Zucker fa/fa rat assessed as fasting plasma insulin level at 1 mg/kg/day; assay type: functional
[18] = system: Mus musculus; experiment: Increase in plasma HDLC level in human ApoA1 transgenic mouse model at 0.3 mg/kg/day after 12 days by FPLC method; assay type: functional, organism-based
[19] = system: Mus musculus; experiment: Increase in plasma HDLC level in human ApoA1 transgenic mouse model at 3 mg/kg/day after 12 days by FPLC method; assay type: functional, organism-based
[20] = system: Rattus norvegicus; experiment: Antidiabetic activity in Zucker fa/fa rat assessed as glucose infusion rate at 3 mg/kg/day after 7 days by hyperinsulinemic-euglycemic clamp study; assay type: functional, organism-based
[21] = system: Rattus norvegicus; experiment: Antidiabetic activity in Zucker fa/fa rat assessed as HOMA-insulin resistance index at 3 mg/kg/day; assay type: functional, organism-based
[22] = system: Rattus norvegicus; experiment: Antidiabetic activity in Zucker fa/fa rat assessed as glucose infusion rate at 10 mg/kg/day after 7 days by hyperinsulinemic-euglycemic clamp study; assay type: functional, organism-based
[23] = system: Rattus norvegicus; experiment: Antidiabetic activity in Zucker fa/fa rat assessed as HOMA-insulin resistance index at 10 mg/kg/day; assay type: functional, organism-based
[24] = system: Rattus norvegicus; experiment: Antidiabetic activity in Zucker fa/fa rat assessed as fasting plasma insulin level at 10 mg/kg/day; assay type: functional
[25] = system: Mus musculus; experiment: Increase in plasma HDLC level in human ApoA1 transgenic mouse model at 10 mg/kg/day after 12 days by FPLC method; assay type: functional, organism-based

Compound | EC50 [1] [nM] | IC50 [2] [nM] | further results
COC(Cc1ccc(OCCc2nc(-c3ccccc3C)oc2C)c2ccccc12)C(=O)O (racemic) | 123 | 432 | –
CCO[C@@H](Cc1ccc(OCCc2nc(-c3ccccc3)oc2C)c2sccc12)C(=O)O | 58 | 333 | –
CCO[C@@H](Cc1ccc(OCCc2nc(-c3ccccc3)oc2C)c2ccccc12)C(=O)O | 11 | 198 | EC50 [3]: 169 nM
Cc1oc(-c2ccccc2)nc1CCOc1ccc(C[C@H](OCC(F)(F)F)C(=O)O)c2sccc12 | 555 | 60 | –
CCO[C@@H](Cc1ccc(OCCc2nc(-c3ccc(-c4ccccc4)cc3)oc2C)c2ccsc12)C(=O)O | 167 | 194 | –
Cc1oc(-c2ccccc2)nc1CCOc1ccc(CC(OCC(C)C)C(=O)O)c2sccc12 (racemic) | 48 | 239 | –
CC(C)(Oc1ccc(C(=O)c2ccc(Cl)cc2)cc1)C(=O)O [FENOFIBRIC ACID] | 69000 | 106000 | Activity [4]: Active
CO[C@@H](Cc1ccc(OCCc2nc(-c3ccccc3)oc2C)c2ccsc12)C(=O)O [ALEGLITAZAR] | – | – | clearance [5]: 6.2 mL/min/kg; clearance [6]: 1.6 mL/min/kg; bioavailability [7]: 70%; bioavailability [8]: 68%; half-life [9]: 4 h; half-life [10]: 12.9 h; Activity [11]: Active; Activity [12]: Active; Activity [13]: Active; Activity [14]: Active; Activity [15]: Active; Activity [16]: Active; Activity [17]: 773 ng/mL; Activity [18]: Active; Activity [19]: Active
Cc1oc(-c2ccc(C(C)C)cc2)nc1CCOc1ccc(C[C@H](OCC2CC2)C(=O)O)c2sccc12 | 16 | 37 | –
CN(CCOc1ccc(CC2SC(=O)NC2=O)cc1)c1ccccn1 (stereo not given) | – | – | Activity [12]: Active; Activity [14]: Active; Activity [20]: Active; Activity [21]: Active
CO[C@@H](Cc1ccc(OCCc2nc(-c3ccccc3)oc2C)c2sccc12)C(=O)O | 157 | 28 | EC50 [3]: 137 nM
Cc1oc(-c2ccc(-c3ccccc3)cc2)nc1CCOc1ccc(C[C@H](OCC(F)(F)F)C(=O)O)c2ccccc12 | 987 | 429 | –
CC(=O)c1ccccc1N[C@@H](Cc1ccc(OCCc2nc(-c3ccccc3)oc2C)cc1)C(=O)O | 284 | 633 | Activity [22]: Active; Activity [23]: Active; Activity [24]: 776 ng/mL; Activity [25]: inactive
CCO[C@@H](Cc1ccc(OCCc2nc(-c3ccc(C(F)(F)F)cc3)oc2C)c2ccsc12)C(=O)O | 89 | 63 | –

More lines, in order of falling EC50 [1], values ahead:

EC50 [1] [nM] | IC50 [2] [nM] | Compound | further results
249 | 120 | CCCCCCOC(Cc1ccc(OCCc2nc(-c3ccccc3)oc2C)c2ccsc12)C(=O)O (racemic) | –
87 | 69 | CCCOC(Cc1ccc(OCCc2nc(-c3ccccc3)oc2C)c2ccccc12)C(=O)O (racemic) | –
61 | 48 | COc1cc(OC)cc(-c2nc(CCOc3ccc(C[C@H](OC)C(=O)O)c4sccc34)c(C)o2)c1 | EC50 [3]: 678 nM
27 | 21 | Cc1oc(-c2ccccc2)nc1CCOc1ccc(C[C@H](OCC2CC2)C(=O)O)c2sccc12 | –
20 | 45 | CO[C@@H](Cc1ccc(OCCc2nc(-c3ccc(C(C)C)cc3)oc2C)c2ccsc12)C(=O)O | –
11 | 905 | CCO[C@@H](Cc1ccc(OCCc2nc(-c3ccc(C(F)(F)F)cc3)oc2C)c2ccccc12)C(=O)O | –
2 | 53 | CO[C@@H](Cc1ccc(OCCc2nc(-c3ccc(C(F)(F)F)cc3)oc2C)c2ccsc12)C(=O)O | –
